The assay concerns the target T1, DPP-IV (Homo sapiens, UniProt P27487).
T1 construct: purchased R&D Systems GmbH, Germany
Briefly: Assay for determining DP-IV inhibition (fluorometric, Gly-Pro-AMC substrate). The assay is classed as biochemical. Particulars: Inhibition of DPP-IV, K(i) calculated from IC(50) with IC(50)=K(i)(1+[S]/Km), pH 8.0. The method, then:
The inhibitory activity of compounds against DPP-IV can be determined by in vitro assay systems, which are themselves well established in the art. The assay results given in Table 5 were obtained according to the following method, employing a modified version of the assay described by Leiting et al., in an article entitled “Catalytic properties and inhibition of proline-specific dipeptidyl peptidases II, IV and VII” in Biochem. J. Vol. 371, pages 525-532 (2003):
DPP-IV activity was determined fluorometrically with Gly-Pro-AMC (where AMC stands for 7-amido-4-methylcoumarin, Bachem AG, Switzerland) as substrate. The reaction mixture contained 10 μl of 1 ng/μl DPP-IV (R&D Systems GmbH, Germany) and 80 μl of 25 mM Tris/HCl buffer, pH 8.0. Compounds were supplied as DMSO stock solutions and diluted in assay buffer to a maximal DMSO concentration of 1% in the assay. Prior to start of the reaction, the mixture was incubated for 30 min at room temperature. The reaction was started by addition of 10 μl of 100 μM substrate solution.
The fluorescence intensity was measured at excitation and emission wavelengths of 355 and 460 nm, respectively, in a FluoStar Galaxy Multiwell Plate (BMG Labtech, Germany). Fluorescence was determined 3 and 4 minutes after start of reaction and increase in fluorescence was used for determination of enzymatic activity. IC(50) values of tested compounds were determined via plotting enzymatic activity versus concentration of test compound and determining the concentration of test compound which yields a 50% inhibition of enzymatic activity.
K(i) values were calculated using the Michaelis-Menten equation for competitive inhibition: IC(50)=K(i)(1+[S]/Km)
T1 sequence (P27487 whole entry): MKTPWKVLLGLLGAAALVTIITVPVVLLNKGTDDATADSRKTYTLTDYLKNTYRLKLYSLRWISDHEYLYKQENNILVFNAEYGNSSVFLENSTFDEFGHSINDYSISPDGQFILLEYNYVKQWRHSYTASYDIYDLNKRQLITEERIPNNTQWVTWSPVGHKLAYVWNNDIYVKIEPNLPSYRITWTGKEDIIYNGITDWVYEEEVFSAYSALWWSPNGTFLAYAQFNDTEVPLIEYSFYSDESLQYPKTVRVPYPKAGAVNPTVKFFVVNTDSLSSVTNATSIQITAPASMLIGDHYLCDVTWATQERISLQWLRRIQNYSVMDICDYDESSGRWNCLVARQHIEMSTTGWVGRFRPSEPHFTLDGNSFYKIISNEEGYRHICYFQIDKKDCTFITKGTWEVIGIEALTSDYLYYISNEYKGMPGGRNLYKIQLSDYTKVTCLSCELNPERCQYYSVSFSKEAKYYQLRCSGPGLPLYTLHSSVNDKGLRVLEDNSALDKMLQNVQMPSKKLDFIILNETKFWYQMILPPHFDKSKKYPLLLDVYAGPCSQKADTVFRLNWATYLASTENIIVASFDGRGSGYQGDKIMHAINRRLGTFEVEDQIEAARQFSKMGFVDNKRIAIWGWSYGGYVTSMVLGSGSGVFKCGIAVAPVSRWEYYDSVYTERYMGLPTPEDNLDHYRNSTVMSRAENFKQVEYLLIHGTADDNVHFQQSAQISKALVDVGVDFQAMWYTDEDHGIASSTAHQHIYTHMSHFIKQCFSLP
As a reminder, the Ki is a measure of affinity in units of concentration, obtained from inhibition or displacement. On to `N#C[C@@H]1CCCN1C(=O)[C@@H](N)CN1C(=O)[C@@H]2C[C@H]1CN2S(=O)(=O)c1cccc(F)c1` [Example 65], for which the Ki is 6 to 50 nM.

Regarding `N#C[C@@H]1CCCN1C(=O)[C@@H](N)CN1C(=O)[C@@H]2C[C@H]1CN2S(=O)(=O)c1cccs1` [Example 66], the Ki is 6 to 50 nM.

Turning to `N#C[C@@H]1CCCN1C(=O)[C@@H](N)CN1C(=O)[C@@H]2C[C@H]1CN2S(=O)(=O)c1ccsc1` [Example 67], the Ki was less than 6 nM.

In the case of `COC(=O)c1sccc1S(=O)(=O)N1C[C@@H]2C[C@H]1C(=O)N2C[C@H](N)C(=O)N1CCC[C@H]1C#N` [Example 68], the Ki is 6 to 50 nM.

Consider `N#C[C@@H]1CCCN1C(=O)[C@@H](N)CN1C(=O)[C@@H]2C[C@H]1CN2C(=O)c1cccs1` [Example 69], for which the Ki is 6 to 50 nM.

For the compound `N#C[C@@H]1CCCN1C(=O)[C@@H](N)CN1C(=O)[C@@H]2C[C@H]1CN2C(=O)Cc1cccs1` [Example 70], the Ki is 6 to 50 nM.

Take `N#C[C@@H]1CCCN1C(=O)[C@@H](N)CN1C(=O)[C@@H]2C[C@H]1CN2C(=O)c1cnccn1` [Example 71]: the Ki was 6 to 50 nM.

Take `N#C[C@@H]1CCCN1C(=O)[C@@H](N)CN1C(=O)[C@@H]2C[C@H]1CN2C(=O)CC1c2ccccc2C=Cc2ccccc21` [Example 72]: the Ki is less than 6 nM.

Consider `N#C[C@@H]1CCCN1C(=O)[C@@H](N)CN1C(=O)[C@@H]2C[C@H]1CN2C(=O)OCC1c2ccccc2-c2ccccc21` [Example 73], for which the Ki was 6 to 50 nM.

For the compound `Cc1ccc(S(=O)(=O)NC(=O)N2C[C@@H]3C[C@H]2C(=O)N3C[C@H](N)C(=O)N2CCC[C@H]2C#N)cc1` [Example 74], the Ki is 51 to 500 nM.

Turning to `CC(C)(C)NC(=O)N1C[C@@H]2C[C@H]1C(=O)N2C[C@H](N)C(=O)N1CCC[C@H]1C#N` [Example 75], the Ki is 51 to 500 nM.

In the case of `N#C[C@@H]1CCCN1C(=O)[C@@H](N)CN1C[C@@H]2C[C@H]1CN2C(=O)Cc1cccs1` [Example 76], the Ki is 6 to 50 nM.

For `N#C[C@@H]1CCCN1C(=O)[C@@H](N)CN1C[C@@H]2C[C@H]1CN2S(=O)(=O)c1cccc(F)c1` [Example 77], the Ki was less than 6 nM.

With `N#C[C@@H]1CCCN1C(=O)[C@@H](N)CN1C[C@@H]2C[C@H]1CN2c1cccc(F)c1` [Example 78], the Ki is 6 to 50 nM.

Source of the values: patent US7553861B2, “Dipeptidyl peptidase-IV inhibitors” (Alantos Pharmaceuticals Holding, Inc., priority 2005, dated 2009).
